# Assay results reported in patent publication US20110223177A1, “TREATMENT OF FIBROTIC EYE DISORDERS” (UNIVERSITY OF EAST ANGLIA, priority 2008, published 2011).
# Entries after “also recorded” stand apart in the source; their conditions may differ.
# Tests used:
# [1] = test system: phosphorylated (active) myosin in FHL124 cells; test: Western blot detection of phosphorylated (active) myosin in response to TGF-β; assay type: cell-based, human; conditions: 15 μM ML7, 10 ng/ml TGF-β2, FHL124 cells
# Description: FIG. 2. Western blot detection of phosphorylated (active) myosin in response to 10 ng/ml TGF-β2 (Sigma, Poole, Dorset, UK). The data presented are pooled from 3 separate experiment. Each left hand bar of the bar pairs reports the result in the absence of ML7 (indicated as “−15 uM ML-7” in the key) and the right hand bar reports the result in the presence of 15 μM ML7 (indicated as “+15 uM ML-7” in the key). Beta actin was used as a control for equivalent protein amounts. * Indicates a significant difference from untreated control group (p<0.05; student's t-test).
# FHL-124 cells were washed with 1.5 ml PBS then lysed on ice in 0.5 mls Daubs lysis buffer; (50 mM HEPES pH 7.5, 150 mM NaCl, 1% Triton X-100, 1 mM EDTA, 10% glycerol, 10 mM sodium pyrophosphate, 2 mM sodium orthovanadate, 10 mM sodium fluoride, 250 mls ddH2O, 1 mM phenylmethylsulfonylfluoride and 10 μg/ml aprotinin. Lysates were pre-cleared by centrifuging at 13000 rpm at 4° C. for 10 min, and the protein content of the soluble fraction will be assayed by Bicinchoninic (BCA) protein assay. Equal amounts of protein per sample were loaded onto 10% SDS-PAGE gels for electrophoresis and transferred onto a polyvinylidene fluoride (PVDF) membrane with a BIO-RAD Trans-Blot semi-dry Transfer Cell. […] Gels were scanned using an HP scanjet 5470c and band intensity determined with Kodak 1D 3.5 software.
# [2] = test system: human lens epithelial cell line FHL124; test: FHL124 patch growth/contraction assay; assay type: cell-based; conditions: FHL 124 patches
# Description: FIG. 3. TGF-β-induced matrix contraction is suppressed by the MLCK inhibitor ML7. FHL 124 cells were seeded to form patches and maintained in the following conditions: EMEM (Eagle's minimal essential medium—standard culture medium) supplemented with 5% FCS (fetal calf serum—control)±15 μM ML7 (myosin light chain kinase inhibitor) (Calbiochem) for a 72 hour experimental period. In the graph, each left hand bar of the bar pairs reports the result in the absence of ML7 (indicated as “−15 uM ML-7” in the key) and the right hand bar reports the result in the presence of 15 μM ML7 (indicated as “[…]” in the key). Please note that numerical data can be obtained from these patches, which can be scrutinized by statistical analysis.
# FIG. 4. TGF-β-induced matrix contraction is promoted by the MLCP inhibitor tautomycin (Calbiochem). FHL 124 cells were seeded to form patches and maintained in the following conditions: EMEM (standard culture medium) supplemented with 5% FCS (control)±50 nM tautomycin (myosin phosphatase inhibitor); control+10 ng/ml TGFβ1±50 nM tautomycin; control+10 ng/ml TGFβ2±50 nM tautomycin for a 48 hour experimental period. […]
# FHL124 cells were seeded at 4 sites on a tissue culture dish at 5000 cells per site and maintained in EMEM supplemented with 5% FCS until confluent regions spanning approximately 5 mm developed. […] The cells were then washed in PBS and stained with Coomassie brilliant blue (a total protein dye) for 30 minutes to enable patches to be visualised and measured. […] Images of patches were captured on a CCD camera using GeneSnap and analysed using Scion image. After the patch area was measured, PBS medium was aspirated from the culture dish and replaced with 1 ml of 70% ethanol allowing Coomassie blue dye within the cells to be dissolved. […] A 200 μl sample of dye from each dish was placed in a clear plastic 96 well microtitre plate and the absorbance read at 550 nm using a plate reader. […]
# human lens capsular bags = test: Human lens capsular bag model; assay type: cell-based
# Description: FIG. 7. The effect of MLCK inhibition (using 15 μM ML7) on cell coverage of the previously cell-free posterior capsule of human capsular bags following 7 days of culture. The data represent Mean SEM (n=4). * Indicates a significant difference from control group. N.B. Control conditions are EMEM supplemented with 5% serum and 10 ng/ml TGFβ.
# FIG. 8. High (top row) and low power (bottom row) phase-contrast micrographs showing cells growing on the lens capsular bag treated with 10 ng/mL TGF-β in the presence or absence of ML7 (15 μM). Contraction (wrinkles) of the lens capsular bag is evident when treated with 10 ng/ml TGF-β alone.
# The model first described by Liu, C. S. C., et al., (Invest. Ophthalmol. Vis. Sci. (1996), 37, pages, 906-914) was employed. Following removal of corneo-scleral discs for transplantation purposes, human donor eyes from the East Anglian Eye Banks, UK (obtained with full ethical approval—COREC form approved 1 Dec. 2004. Ref04/Q0102/57) were used to perform a sham cataract operation. The resulting capsular bag was then dissected free of the zonules and secured on a sterile 35 mm polymethylmethacrylate (PMMA) petri dish. […] Coverage and matrix modification of the previously cell-free posterior capsule were captured on a daily basis using low-power phase microscopy and quantified using analysis software. […]
# [3] = test system: cells growing on the lens capsular bag; test: Immunocytochemical analysis of capsular bags at end point; assay type: cell-based, human; conditions: 15 μM ML7, 10 ng/ml TGF-β
# Description: FIG. 9. […] The fields of view represent 448×342 μm.
# Preparations were fixed for 30 minutes in 4% formaldehyde in PBS and permeabilised in PBS containing 0.5% Triton-X100, also for 30 minutes. Anti-CPI-17 and Anti-alpha smooth muscle actin was diluted 1:100 and applied for 60 min at 35° C., followed by washing. CPI-17 was visualised with ALEXA 488-conjugated secondary antibodies (Molecular Probes, Leiden, Netherlands). The F-actin cytoskeleton was stained with Texas Red-X-phalloidin and chromatin using DAPI (Molecular Probes, Leiden, Netherlands) for 10 min at room temperature. The stained preparations were again washed extensively, floated onto microscope slides and mounted in Hydromount mounting medium (National Diagnostics, Hull, UK). Images were viewed with a Zeiss epifluorescence microscope and Axiovision software.
# From the work on the cell line we chose to test ML7 i.e. the MLCK inhibitor. These studies were carried out on separate donors using a match paired format; one capsular bag was maintained in TGF-β and serum supplemented medium, while the other was maintained in TGF-β and serum supplemented medium plus 15 μM ML7. There is great consistency in cell behaviour from one eye to another from an individual donor; therefore the effects observed are due to the presence or absence of the inhibitor. […] This growth inhibition could be useful in the treatment of PCO as growth across the capsule is a critical component in the development of the condition, but this is a retardation of cell growth rather than ablation. […] In addition, we have carried out immunocytochemical analysis of the capsular bags at end point (FIG. 9).
smiles,measurement,setting,value
"O=S(=O)(c1cccc2c(I)cccc12)N1CCCNCC1 [ML7, (5-iodonaphthalene-1-sulfonyl)homopiperazine]",TGFβ-induced myosin activation (phosphorylated myosin),[1],significantly inhibited TGFβ-induced myosin activation
same,TGF-β-induced matrix contraction,"[2]; 15 μM ML7, 72 hour, EMEM + 5% FCS",significantly suppresses TGF-β-induced contraction; also recorded: significant reduction of TGF-β-induced contraction
same,TGF-β-induced matrix contraction (wrinkles) of the lens capsular bag,"human lens capsular bags; 15 μM ML7, 10 ng/ml TGF-β",does not give rise to wrinkle formation; also recorded: can suppress TGF-β-induced matrix contraction
same,cell coverage of the previously cell-free posterior capsule,"human lens capsular bags; 15 μM ML7, 7 days of culture, EMEM + 5% serum + 10 ng/ml TGFβ, control group 100% cover",80%
same,distribution of cell nuclei,[3],even distribution of cell nuclei
same,general organization of the cells,[3],cobblestone appearance
same,αSMA levels versus control bags,[3],similar
CO[C@H]([C@H](O)CC(=O)[C@@H](C)[C@@H](O)CC[C@@H](C)[C@@H]1O[C@]2(CC[C@@H](C)[C@H](CC[C@H](C)C(C)=O)O2)CC[C@@H]1C)[C@H](OC(=O)C[C@@H](O)C1=C(C)C(=O)OC1=O)C(C)C [tautomycin],TGF-β-induced matrix contraction,"[2]; 50 nM tautomycin, 10 ng/ml TGFβ1 or TGFβ2, 48 hour",speeded up the rate of contraction
same,TGF-β-induced matrix contraction,"[2]; 50 nM tautomycin, 10 ng/ml TGFβ1 or TGFβ2, 48 hour, listed as Tautomycin",significantly increases TGF-β-induced contraction
